Laboratory results taken from article PMC4951033, “Elevation of the Yields of Very Long Chain Polyunsaturated Fatty Acids via Minimal Codon Optimization of Two Key Biosynthetic Enzymes” (PLoS ONE, 2016).

Target: T1, PinD6 (PinDes6, delta-6 desaturase) (Phytophthora infestans, UniProt A0A833SQW7)
T1 construct: gene GN244_ATG16356

SMILES	GC of fatty acid methyl esters from fed yeast
CC/C=C\C/C=C\C/C=C\CCCCCCCC(=O)O [ALA, α-linolenic acid]	WT-PinD6 can convert LA and ALA to GLA and SDA
CCCCC/C=C\C/C=C\CCCCCCCC(=O)O [LA]	WT-PinD6 can convert LA and ALA to GLA and SDA
